Results reported in patent US20050222085A1, “Quaternised ammonium cyclodextrin compounds” (priority 2002, published 2005).

Key:
Assay in all cases: Preservative effectiveness test
Format in all cases: cell-based
[1] = system: Escherichia coli ATCC 8739; details: same solution
Procedure: (§1) 0.2 g of QA-beta-CD (QA-beta-CD=3-(trimethylammonio)-2-hydroxypropyl-beta-cyclodextrin chloride, empiric formula: (C6H10-nO5)7(C6H15ONCl)n n=2-5. are added to 170 ml water (nanopure). Then 10.10 g of Sorbitol and 0.2 g of Disodium edetate are added and the pH is adjusted to a value of 7.0-7.4 and water added to make up 200 ml of resulting solution. The solution is filtered through a Corning bottle top filter unit 0.22 μm CA under sterile conditions. The solution has a pH of 7.35 and an osmolality of 307 mOsm/kg (270-330).
(§2) Samples of the solution are inoculated with Escherichia coli ATCC 8739; Pseudomonas aeruginosa ATCC 9027, Staphyloccocus aureus ATCC 6538; Candida albicans ATCC 10231 and Aspergillus niger ATCC 16404, respectively and assayed for presence/growth at the times given in Table 2.

[2] = system: Candida albicans ATCC 10231; details: same solution
Procedure: as §1, §2

[3] = system: Pseudomonas aeruginosa ATCC 9027; details: same solution
Procedure: as §1, §2

[4] = system: Staphyloccocus aureus ATCC 6538; details: same solution
Procedure: as §1, §2

[5] = system: Aspergillus niger ATCC 16404; details: Time 28 d; same solution
Procedure: as §1, §2

Substance: 3-(trimethylammonio)-2-hydroxypropyl-beta-cyclodextrin chloride [QA-beta-CD]
- presence/growth of Escherichia coli ATCC 8739 ([1]; Time 6 h): <10^2
- presence/growth of Escherichia coli ATCC 8739 ([1]; Time 24 h): <10^2
- presence/growth of Escherichia coli ATCC 8739 ([1]; Time 7 d): <10^2
- presence/growth of Escherichia coli ATCC 8739 ([1]; Time 28 d): <10^2
- presence/growth of Candida albicans ATCC 10231 ([2]; Time 7 d): <10^2
- presence/growth of Candida albicans ATCC 10231 ([2]; Time 14 d): <10^2
- presence/growth of Candida albicans ATCC 10231 ([2]; Time 28 d): <10^2
- presence/growth of Pseudomonas aeruginosa ATCC 9027 ([3]; Time 6 h): <10^2
- presence/growth of Pseudomonas aeruginosa ATCC 9027 ([3]; Time 24 h): <10^2
- presence/growth of Pseudomonas aeruginosa ATCC 9027 ([3]; Time 7 d): <10^2
- presence/growth of Pseudomonas aeruginosa ATCC 9027 ([3]; Time 28 d): <10^2
- presence/growth of Staphyloccocus aureus ATCC 6538 ([4]; Time 24 h): <10^2
- presence/growth of Staphyloccocus aureus ATCC 6538 ([4]; Time 7 d): <10^2
- presence/growth of Staphyloccocus aureus ATCC 6538 ([4]; Time 28 d): <10^2
- presence/growth of Aspergillus niger ATCC 16404 [5]: 2. 10^2
